Test results as given in patent US8188064B2, “Vitamin D analogs for obesity prevention and treatment” (Wisconsin Alumni Research Foundation, priority 2003, dated 2012).
“Also recorded” adds a separate entry of the source.

Tests used:
[1] = Intestinal calcium transport (everted gut sac); format: in vivo; settings: result in words; vitamin D deficient rat model, compared to 1α,25(OH)2D3
Description: (§1) Male, weanling Sprague-Dawley rats were placed on Diet 11 (0.47% Ca) diet+AEK for one week followed by Diet 11 (0.02% Ca)+AEK for 3 weeks. The rats were then switched to a diet containing 0.47% Ca for one week followed by two weeks on a diet containing 0.02% Ca. Dose administration began during the last week on 0.02% calcium diet. Four consecutive ip doses were given approximately 24 hours apart. Twenty-four hours after the last dose, blood was collected from the severed neck and the concentration of serum calcium determined as a measure of bone calcium mobilization. The first 10 cm of the intestine was also collected for intestinal calcium transport analysis using the everted gut sac method.

SCD-1 mRNA = assay: Inhibition of SCD-1 mRNA induction in 3T3-L1 cells (RT-PCR); format: cell-based, murine; settings: for inhibition of SCD-1 mRNA induction: result in words, MDI-treated 3T3-L1 cells
Source text: Chomczynski, P. et al., Anal. […] NO: 4)).

[2] = molecular target: T1, full-length recombinant rat vitamin D receptor (Rattus norvegicus, UniProt P13053); assay: Vitamin D receptor binding (competition with 3H-1,25(OH)2D3); settings: for binding to the vitamin D receptor, compared to 1α,25(OH)2D3: result in words, competition for tritiated hormone binding
T1 construct: Full-length recombinant rat receptor was expressed in E. coli; histidine tag (C); made in house; host or cells: E. coli BL21(DE3) Codon Plus RIL
T1 sequence (P13053 1-423): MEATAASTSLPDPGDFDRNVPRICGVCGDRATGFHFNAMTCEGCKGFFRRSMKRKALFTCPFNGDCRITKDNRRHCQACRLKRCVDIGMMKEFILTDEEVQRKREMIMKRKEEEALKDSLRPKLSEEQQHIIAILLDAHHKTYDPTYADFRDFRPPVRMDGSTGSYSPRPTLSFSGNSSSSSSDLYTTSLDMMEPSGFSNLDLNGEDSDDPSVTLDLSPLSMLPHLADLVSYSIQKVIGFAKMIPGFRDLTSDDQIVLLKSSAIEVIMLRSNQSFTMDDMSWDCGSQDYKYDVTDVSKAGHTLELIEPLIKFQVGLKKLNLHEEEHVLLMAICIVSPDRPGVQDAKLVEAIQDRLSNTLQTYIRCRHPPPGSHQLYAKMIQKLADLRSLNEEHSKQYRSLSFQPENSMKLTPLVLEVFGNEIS
Description: Full-length recombinant rat receptor was expressed in E. coli BL21(DE3) Codon Plus RIL cells and purified to homogeneity using two different column chromatography systems. The first system was a nickel affinity resin that utilizes the C-terminal histidine tag on this protein. The protein that was eluted from this resin was further purified using ion exchange chromatography (S-Sepharose Fast Flow). Aliquots of the purified protein were quick frozen in liquid nitrogen and stored at −80° C. until use. For use in binding assays, the protein was diluted in TEDK50 (50 mM Tris, 1.5 mM EDTA, pH 7.4, 5 mM DTT, 150 mM KCl) with 0.1% Chaps detergent. The receptor protein and ligand concentration was optimized such that no more than 20% of the added radiolabeled ligand was bound to the receptor.
Unlabeled ligands were dissolved in ethanol and the concentrations determined using UV spectrophotometry (1,25(OH)2D3: molar extinction coefficient=18,200 and λmax=265 nm; Analogs: molar extinction coefficient=42,000 and λmax=252 nm). Radiolabeled ligand (^3H-1,25(OH)2D3, ˜159 Ci/mmole) was added in ethanol at a final concentration of 1 nM.
Radiolabeled and unlabeled ligands were added to 100 mcl of the diluted protein at a final ethanol concentration of ≦10%, mixed and incubated overnight on ice to reach binding equilibrium. The following day, 100 mcl of hydroxylapatite slurry (50%) was added to each tube and mixed at 10-minute intervals for 30 minutes. The hydroxylapaptite was collected by centrifugation and then washed three times with Tris-EDTA buffer (50 mM Tris, 1.5 mM EDTA, pH 7.4) containing 0.5% Titron X-100. After the final wash, the pellets were transferred to scintillation vials containing 4 ml of Biosafe II scintillation cocktail, mixed and placed in a scintillation counter. Total binding was determined from the tubes containing only radiolabeled ligand.

3T3-L1 cells = assay: Inhibition of 3T3-L1 differentiation into mature adipocytes (Oil-Red-O staining); format: cell-based, murine; settings: for inhibition of differentiation of 3T3-L1 cells into mature adipocytes (Oil-Red-O staining): result in words, MDI-treated cells, staining at day 10
Description: Various 19-nor vitamin D analogs were or are tested and found to inhibit the differentiation of preadipocytes into mature adipocytes, to reduce body fat, to inhibit an increase in PPARγ, C/EBPα, and/or SCD-1 gene transcription and to be useful in treating and preventing obesity both in vivo and in vitro. The undifferentiated preadipocyte 3T3-L1 subline, a derivative of the original mouse fibroblast cell line, is one of the most accepted models for investigating the adipogenesis process and was used for the analysis. Two days after reaching confluence, 3T3-L1 cells can be induced to differentiate into adipocytes (see Mackall, J. C. et al. J. Biol. Chem., 251(20), 6462-6464 (1976)) with the addition of a cAMP phosphodiesterase inhibitor, dexamethasone (a glucocortoid), and insulin. […] The induction of PPARγ and C/EBPα is required for adipocyte differentiation. […] SCD-1 is an enzyme found in adipocytes that converts saturated fatty acids (C16 and C18) to their monounsaturated forms (C16:1 and C18:1). The deposition of triglyceride can also be detected as early as 3 days, and by the 7th to 14th days post-confluence, greater than 80% of the cells in the monolayer stain positively with Oil-red-O.

[3] = test system: 24-hydroxylase (24Ohase) gene promoter in ROS 17/2.8 (bone) cells; assay: In vitro transcription assay (luciferase reporter); format: cell-based; settings: result in words
Description: Transcription activity was measured in ROS 17/2.8 (bone) cells that were stably transfected with a 24-hydroxylase (24Ohase) gene promoter upstream of a luciferase reporter gene (Arbour et al., 1998). Cells were given a range of doses. Sixteen hours after dosing the cells were harvested and luciferase activities were measured using a luminometer. RLU=relative luciferase units.

[4] = test system: Human promyelocytic leukemia (HL60) cells; assay: HL-60 differentiation (nitro blue tetrazolium reduction); format: cell-based; settings: for differentiation of HL-60 cells, compared to 1α,25(OH)2D3: result in words
Description: The study drugs were dissolved in ethanol and the concentrations determined using UV spectrophotometry. Serial dilutions were prepared so that a range of drug concentrations could be tested without changing the final concentration of ethanol (≦0.2%) present in the cell cultures.
Human promyelocytic leukemia (HL60) cells were grown in RPMI-1640 medium containing 10% fetal bovine serum. The cells were incubated at 37° C. in the presence of 5% CO2.
HL60 cells were plated at 1.2×10^5 cells/ml. Eighteen hours after plating, cells in duplicate were treated with drug. Four days later, the cells were harvested and a nitro blue tetrazolium reduction assay was performed (Collins et al., 1979; J. Exp. Med. 149:969-974). The percentage of differentiated cells was determined by counting a total of 200 cells and recording the number that contained intracellular black-blue formazan deposits. Verification of differentiation to monocytic cells was determined by measuring phagocytic activity (data not shown).

[5] = Bone calcium mobilization (serum calcium on low calcium diet); format: in vivo, rat; settings: result in words; vitamin D deficient rat model, compared to 1α,25(OH)2D3
Description: as §1

intestinal calcium transport activity [1]	binding to the vitamin D receptor, compared to 1α,25(OH)2D3 [2]	Structure (SMILES)	inhibition of differentiation of 3T3-L1 cells into mature adipocytes (Oil-Red-O staining) (3T3-L1 cells)	transcriptional activity in bone cells, compared to 1α,25(OH)2D3 [3]	differentiation of HL-60 cells, compared to 1α,25(OH)2D3 [4]	bone calcium mobilization activity [5]	other results
little, if any, activity	as or nearly effective as calcitriol	C=C1[C@H](O)CC(=C/C=C2\CCC[C@]3(C)[C@@H](CC)CC[C@@H]23)C[C@H]1O [2-Mpregna]	nearly as potent as the native hormone			little, if any, activity	inhibition of SCD-1 mRNA induction (SCD-1 mRNA): nearly as potent as the native hormone; inhibition of SCD-1 mRNA induction (SCD-1 mRNA; listed as 2Mpregna): still active; inhibition of SCD1 mRNA induction (SCD-1 mRNA; tested at 1×10^−8.5 M): active; inhibition of differentiation of 3T3-L1 cells into mature adipocytes (Oil-Red-O staining) (3T3-L1 cells; listed as 2Mpregna): still active; inhibition of differentiation of MDI-treated 3T3-L1 cells (oil-red-O staining) (3T3-L1 cells; tested at 1×10^−8.5 M): active
	bound equally well	CCCC[C@H](C)[C@H]1CC[C@H]2/C(=C/C=C3C[C@@H](O)C(C)[C@H](O)C3)CCC[C@]12C (stereo partly drawn) [2α-methyl-19,26,27-trinor, 2α-methyl-19,26,27-trinor-(20S)-1α-hydroxyvitamin D3]		similar	almost as potent	very little bone calcium mobilization activity	
very little activity	bound equally well	C=C1[C@H](O)CC(=C/C=C2\CCC[C@@H]3[C@@H](C(C)C)CC[C@@H]23)C[C@H]1O [18,19-dinor-2MP, 2-methylene-18,19-dinor-1α-hydroxyhomopregnacalciferol]		about the same transcriptional activity	almost as potent	very little bone calcium mobilization activity	
	as well as the native hormone	C[C@H](/C=C/[C@H](C)C(C)(C)O)[C@H]1CC[C@H]2/C(=C/C=C3C[C@@H](O)C[C@H](O)C3)CCC[C@]12C [19-nor-1α,25-dihydroxyvitamin D2, reference compound]	equivalent in potency; also recorded: active			very low bone calcium mobilizing activity	inhibition of differentiation of 3T3-L1 cells into mature adipocytes (Oil-Red-O staining) (3T3-L1 cells; listed as 19-nor-1α,25-dihydroxyvitamin D2): more active
	binds poorly, if at all	C=C1[C@H](O)C/C(=C/C=C2\CCC[C@]3(C)[C@@H]([C@@H](C)CC)CC[C@@H]23)C[C@@H]1O [(1β,20S)2MbisP, (20S)-1β-hydroxy-2-methylene-19-nor-bishomo-pregnacalciferol, reference compound]					inhibition of SCD-1 mRNA induction (SCD-1 mRNA; listed as 1-(20S)2-MbisP): unable to inhibit; inhibition of SCD-1 mRNA induction (SCD-1 mRNA; listed as (1βOH, 20S)2M-BisP): ineffective; inhibition of differentiation of 3T3-L1 cells into mature adipocytes (Oil-Red-O staining) (3T3-L1 cells; listed as 1-(20S)2-MbisP): unable to inhibit; inhibition of differentiation of 3T3-L1 cells into mature adipocytes (Oil-Red-O staining) (3T3-L1 cells; listed as (1βOH, 20S)2M-BisP): ineffective
less active		C=C1[C@H](O)CC(=C/C=C2\CCC[C@]3(C)[C@@H]([C@H](C)/C=C/[C@@H](C)C(C)(C)O)CC[C@@H]23)C[C@H]1O [(24epi)D2]	improved; also recorded: active			less active	higher affinity binding to the vitamin D receptor than the native hormone ([2]; higher affinity than native hormone): approximately 0.5 log units
active		C=C1[C@H](O)CC(=C/C=C2\CCC[C@]3(C)[C@@H]([C@@H](C)CCCC(C)(C)C)CC[C@@H]23)C[C@H]1O [TMM]	inhibit; also recorded: effective			active	

Structure (SMILES)	intestinal calcium transport activity [1]	binding to the vitamin D receptor, compared to 1α,25(OH)2D3 [2]	inhibition of differentiation of 3T3-L1 cells into mature adipocytes (Oil-Red-O staining) (3T3-L1 cells)	transcriptional activity in bone cells, compared to 1α,25(OH)2D3 [3]	differentiation of HL-60 cells, compared to 1α,25(OH)2D3 [4]	bone calcium mobilization activity [5]	other results
CC(CCCC(C)(C)O)C1CCC2C(=CC=C3CC(O)C(=CCCO)C(O)C3)CCCC21C (stereo not shown) [1AGR]	relatively high intestinal calcium transport activity; also recorded: active	very active	nearly equipotent; also recorded: so much greater; also recorded: active	significant transcriptional activity	as potent as	significant ability to mobilize calcium from bone; also recorded: active	inhibition of SCD-1 mRNA induction (SCD-1 mRNA): nearly equipotent; also recorded: active; binding to the vitamin D receptor, compared to 1α,25(OH)2D3 ([2]; listed as AGR): less than five times less potent; cells induced to differentiate in the NBT assay ([4]; concentration 1×10^−7 M): same degree of differentiation
